According to patent US5719169A, “Substituted benzoylguanidines, their use as a medicament or diagnostic, and medicament containing them” (priority 1993, dated 1998):
Structures can show the parent of a compound that is named as a salt.

What was measured:
[1] = target: T1, Na^+ /H^+ exchanger of rabbit erythrocytes (Oryctolagus cuniculus, UniProt P23791); assay: Inhibition of the Na^+ /H^+ exchanger of rabbit erythrocytes (amiloride-sensitive sodium influx, flame photometry); format: cell-based, rabbit (New Zealand White); conditions: pH 7.4, 37° C., hyperosmolar salt/sucrose medium
T1 construct: exchanger of rabbit erythrocytes; from tissue; host or cells: erythrocytes in blood of cholesterol-fed New Zealand White rabbits
T1 sequence (P23791 whole entry): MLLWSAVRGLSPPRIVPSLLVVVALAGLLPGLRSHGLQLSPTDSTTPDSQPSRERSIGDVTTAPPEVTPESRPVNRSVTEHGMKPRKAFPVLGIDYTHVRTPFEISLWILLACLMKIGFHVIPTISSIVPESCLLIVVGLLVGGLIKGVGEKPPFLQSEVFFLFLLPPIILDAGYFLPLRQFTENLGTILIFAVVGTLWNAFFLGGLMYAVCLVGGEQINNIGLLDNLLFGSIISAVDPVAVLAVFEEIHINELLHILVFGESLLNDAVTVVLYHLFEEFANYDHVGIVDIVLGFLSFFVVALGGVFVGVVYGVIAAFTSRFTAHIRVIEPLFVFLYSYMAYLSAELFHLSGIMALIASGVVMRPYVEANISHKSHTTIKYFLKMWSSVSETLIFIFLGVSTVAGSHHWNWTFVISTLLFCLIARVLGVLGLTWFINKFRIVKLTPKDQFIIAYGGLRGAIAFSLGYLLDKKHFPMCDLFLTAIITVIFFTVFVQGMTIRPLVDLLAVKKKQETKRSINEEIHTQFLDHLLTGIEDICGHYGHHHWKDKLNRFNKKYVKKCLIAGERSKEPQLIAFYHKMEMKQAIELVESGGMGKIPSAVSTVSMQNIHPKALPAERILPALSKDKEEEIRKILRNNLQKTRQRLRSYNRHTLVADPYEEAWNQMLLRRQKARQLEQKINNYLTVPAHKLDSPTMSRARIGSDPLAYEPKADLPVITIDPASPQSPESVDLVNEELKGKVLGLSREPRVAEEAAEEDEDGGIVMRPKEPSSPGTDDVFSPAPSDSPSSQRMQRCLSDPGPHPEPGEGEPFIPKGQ
Excerpt: Inhibition of the Na^+ /H^+ exchanger of rabbit erythrocytes
New Zealand White rabbits (Ivanovas) received a standard diet containing 2% cholesterol for six weeks in order to activate the Na^+ /H^+ exchange and thus to be able to determine, by flame photomerry, the Na^+ influx into the erythrocytes via Na^+ /H^+ exchange. The blood was removed from the aural arteries and rendered incoagulable using 25 IU of potassium heparin. A part of each sample was used for the duplicate determination of the hematocrit by means of centrifugation. Aliquots of in each case 100 μl were used for measuring the initial Na^+ content of the erythrocytes.
In order to determine the amiloride-sensitive sodium influx, 100 μl of each blood sample were in each case incubated, at pH 7.4 and 37° C., in 5 ml of a hyperosmolar salt/sucrose medium (mmol/1: 140 NaCl, 3 KCl, 150 sucrose, 0.1 ouabain, 20 tris(hydroxymethyl)aminomethane). The erythrocytes were then washed three times with ice-cold MgCl2 /ouabain solution ([…]: 112 MgCl2, 0.1 ouabain) and hemolyzed in 2.0 ml of distilled water. The intracellular sodium content was determined by flame photometry.
The net influx of Na^+ was calculated from the difference between the initial sodium values and the sodium content of the erythrocytes following incubation. The amiloride-inhibitable sodium influx was calculated from the difference in the sodium content of the erythrocytes following incubation with and without amiloride 3×10^-4 mol/1. This method was also employed in the case of the compounds according to the invention.

cardiac arrhythmias = conditions: cited from earlier work

CS(=O)(=O)c1cc(C(=O)N=C(N)N)ccc1Oc1ccc(-c2ncc[nH]2)cc1 [Example 2, 4-(Imidazol-2-yl)phenoxy-3-methylsulfonylbenzoylguanidine, dihydrochloride] gave an IC50 [1] of 300 nM.
For N=C(N)NC(=O)c1nc(Cl)c(N)nc1N [amiloride, Amiloride], the antiarrhythmic effect (cardiac arrhythmias; Circulation 79, 1257 to 1263 (1989)) is given as “only weakly expressed” and the “hypotensive and saluretic side effects” value (cardiac arrhythmias; in vivo) is given as “accompanied by hypotensive and saluretic effects”.
CS(=O)(=O)c1cc(C(=O)N=C(N)N)ccc1Oc1ccc(-c2cccnc2)cc1 [Example 3, 4-[4-(3-Pyridyl)phenoxy]-3-methylsulfonylbenzoylguanidine, dihydrochloride] showed an IC50 [1] of 200 nM.
Compound CS(=O)(=O)c1cc(C(=O)N=C(N)N)ccc1Oc1ccc(-c2nccn2Cc2ccccc2)cc1 [Example 1, 4-(1-Benzylimidazol-2-yl)phenoxy-3-methylsulfonylhenzoylguanidine, dihydrochloride] has an IC50 [1] of 300 nM.
With CS(=O)(=O)c1cc(C(=O)N=C(N)N)ccc1Oc1ccc(-c2ccccn2)cc1 [Example 5, 4-[4-(2-Pyridyl)phenoxy]-3-methylsulfonylbenzoylguanidine, dihydrochloride] the IC50 [1] was 300 nM.
